Entries after “also recorded” stand apart in the source; their conditions may differ. Where two headings read alike, the source gives them in different places.
Assays:
[1] = Single time point (1 h) brain concentrations after i.n. administration in rats; type: in vivo; details: rat, 30 mg/kg i.n., 1 h post dose; for concentration at 1 h: male, Wistar, other: intranasal (i.n.)
[2] = non-human primates; halted development; no reference given; cited from earlier work
GCP-II [3] = details: GCP-II inhibition, cited from earlier work
GCP-II [4] = target: T1, GCP-II (Rattus norvegicus, UniProt P70627); experiment: Ex vivo GCP-II enzymatic (NAAG hydrolyzing) activity in brain tissue after i.n. administration; details: for inhibition at 30 mg/kg: inhaled or nasal, 30 mg/kg i.n., 1 h post dose, relative to untreated control rats
T1 construct: from tissue; host or cells: rat brain (olfactory bulb, cortex, cerebellum), sonicated homogenate supernatant
T1 sequence (P70627 whole entry): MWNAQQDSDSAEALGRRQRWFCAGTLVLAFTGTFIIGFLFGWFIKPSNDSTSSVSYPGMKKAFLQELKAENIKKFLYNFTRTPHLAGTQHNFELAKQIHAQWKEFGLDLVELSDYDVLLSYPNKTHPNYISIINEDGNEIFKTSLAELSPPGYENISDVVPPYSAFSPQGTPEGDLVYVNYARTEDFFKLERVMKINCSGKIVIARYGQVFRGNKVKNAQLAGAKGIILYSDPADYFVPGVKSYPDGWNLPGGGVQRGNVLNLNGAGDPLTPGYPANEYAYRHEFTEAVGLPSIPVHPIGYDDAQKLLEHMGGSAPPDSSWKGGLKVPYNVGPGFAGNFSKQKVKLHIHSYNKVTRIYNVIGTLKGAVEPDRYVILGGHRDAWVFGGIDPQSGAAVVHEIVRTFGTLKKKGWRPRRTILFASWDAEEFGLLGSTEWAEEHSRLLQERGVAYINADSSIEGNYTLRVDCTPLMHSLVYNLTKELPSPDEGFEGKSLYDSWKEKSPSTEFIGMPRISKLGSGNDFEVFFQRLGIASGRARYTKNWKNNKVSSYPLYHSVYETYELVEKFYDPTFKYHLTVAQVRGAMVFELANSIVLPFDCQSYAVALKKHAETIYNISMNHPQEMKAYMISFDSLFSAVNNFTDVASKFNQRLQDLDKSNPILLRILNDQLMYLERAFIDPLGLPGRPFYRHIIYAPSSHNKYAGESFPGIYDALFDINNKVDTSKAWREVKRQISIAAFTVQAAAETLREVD
Protocol: One half of the brain tissues collected following i.n. administration (1h post dose) was used to determine GCP-II NAAG hydrolyzing activity. In brief, tissues were weighed and immersed in 0.5 mL of ice-cold 50 mM Tris Buffer (pH 7.7 at RT). Each tissue was sonicated for 30–60 seconds using an ultrasonic cell disrupter. After a 2 minute spin at 13,000 g, supernatants were analyzed for protein content and NAAG-hydrolyzing activity measurements were performed as previously described.

[5] = following systemic administration; ref [45]; cited from earlier work
[6] = Pharmacokinetics of 2-PMPA after i.p. administration in rats; type: in vivo; details: rat, 30 mg/kg i.p.
Protocol: For i.p. studies 2-PMPA was administered as a single i.p. dose. All dosing solutions were prepared on the day of the experiment in 50 mM HEPES buffered saline, and pH adjusted to 7.4 before injection. At various time points following drug administration (0.16, .5, 1, 3, 5 h) post dose, animals (n = 3 per time point, except 3 h n = 2 animals) were euthanized with CO2, and blood samples were collected in heparinized microtubes by cardiac puncture and tissues (olfactory bulb, frontal cortex, and cerebellum) were dissected and immediately flash frozen (-80°C). Plasma was prepared by centrifugation immediately after collection of blood samples. All samples were stored in -80°C until bioanalysis. […]
The maximum plasma concentration (Cmax) and time to Cmax (Tmax) were the observed values. The area under the plasma concentration time curve (AUC) value was calculated to the last quantifiable sample (AUClast) by use of the log-linear trapezoidal rule. The brain to plasma partition coefficients were calculated as a ratio of their AUCs (AUC0-t,brain/AUC0-t,plasma). The elimination half-life (t1/2) was determined by dividing 0.693 by λ z.

[7] = Plasma and CSF exposure after i.n. administration in non-human primate; type: in vivo; details: male cynomolgus monkey, 30 min post dose
Protocol: Total dose delivered was 100 mg.
Standard curves were generated in blank artificial CSF. […] Samples were analysed on agilent QTOF mass spectrometer by LC/MS.

[8] = Pharmacokinetics of 2-PMPA after i.n. administration in rats; type: in vivo; details: rat
[9] = cerebellum, read-out: Mean concentration in cerebellum
[10] = frontal cortex, read-out: Mean concentration in cortex
[11] = olfactory bulb, read-out: Mean concentration in olfactory bulb
[12] = printed in Fig 1, no method or reference given in this paper, read-out: Potency (IC50)

**Q.** With `O=C(O)CCC(CCCS)C(=O)O` (stereo not drawn) [2-MPPA, 2-(3-mercaptopropyl)pentane-dioic acid] as the molecule, how does the concentration at 1 h [1, 9] read?
**A.** 210 ng/g

**Q.** And the concentration at 1 h [1, 10]?
**A.** 260 ng/g

**Q.** And the concentration at 1 h [1, 11]?
**A.** 4460 ng/g

**Q.** And the “Toxicity observed in primate studies” value [2]?
**A.** membranoproliferative glomerular nephritis; also recorded: immunological toxicities

**Q.** What about the IC50 (GCP-II [3]; [12]) of the same molecule?
**A.** 90 nM

**Q.** For `O=C(O)CCC(CP(=O)(O)O)C(=O)O` (stereo not drawn) [2-PMPA, 2-(phosphonomethyl)-pentanedioic acid], which “Inhibition of brain GCP-II enzymatic activity ex-vivo (in words)” value (GCP-II [4]; i.n. administration) is on record?
**A.** complete inhibition

**Q.** What about the inhibition at 30 mg/kg (GCP-II [4]; read-out: Inhibition of GCP-II activity, cerebellum) of the same molecule?
**A.** 70%

**Q.** What about the inhibition at 30 mg/kg (GCP-II [4]; read-out: Inhibition of GCP-II activity, cortex) of the same molecule?
**A.** 100%

**Q.** What about the inhibition at 30 mg/kg (GCP-II [4]; read-out: Inhibition of GCP-II activity, olfactory bulb) of the same molecule?
**A.** 100%

**Q.** And the “Brain to plasma ratio” value [5]?
**A.** ≤ 2%

**Q.** And the Kp ([6]; male, Wistar, cerebellum, ip, read-out: Brain tissue to plasma ratio (AUC0-t,brain/AUC0-t,plasma), cerebellum)?
**A.** < 0.02

**Q.** And the Kp ([6]; male, Wistar, frontal cortex, ip, read-out: Brain tissue to plasma ratio (AUC0-t,brain/AUC0-t,plasma), cortex)?
**A.** < 0.02

**Q.** And the half-life ([6]; male, Wistar, ip, plasma, read-out: Elimination t1/2 (converted))?
**A.** 59.4 min

**Q.** What about the Cmax ([6]; male, Wistar, ip, plasma, read-out: Peak plasma concentration (Cmax)) of the same molecule?
**A.** 49500 ng/mL

**Q.** What about the AUC(0-t) ([6]; male, Wistar, plasma, ip, read-out: AUC0-t plasma) of the same molecule?
**A.** 50300 ng·h/mL

**Q.** And the CL/F ([6]; male, Wistar, plasma, ip, read-out: Apparent clearance)?
**A.** 9.71 mL/min/kg

**Q.** And the AUC0-t cerebellum [6]?
**A.** 0.80 µg·h/g

**Q.** What about the AUC0-t cortex [6] of the same molecule?
**A.** 0.84 µg·h/g

**Q.** What about the AUC0-t olfactory bulb [6] of the same molecule?
**A.** 1.15 µg·h/g

**Q.** And the “Apparent volume of distribution” value [6]?
**A.** 0.82 L/kg

**Q.** And the “Mean concentration in cerebellum” value [1]?
**A.** 2.13 µg/g

**Q.** What about the “Mean concentration in cortex” value [1] of the same molecule?
**A.** 10.3 µg/g

**Q.** And the “Mean concentration in olfactory bulb” value [1]?
**A.** 31.2 µg/g

**Q.** And the Plasma level ([7]; total dose 100 mg i.n., below the limit of quantitation)?
**A.** < 50 nM

**Q.** What about the Cmax ([8]; male, Wistar, other: intranasal (i.n.), 30 mg/kg i.n., plasma) of the same molecule?
**A.** 24700 ng/mL

**Q.** What about the AUC(0-t) ([8]; male, Wistar, plasma, other: intranasal (i.n.), 30 mg/kg i.n., read-out: AUC0-t plasma) of the same molecule?
**A.** 52300 ng·h/mL

**Q.** What about the AUC0-t cerebellum ([8]; 30 mg/kg i.n.) of the same molecule?
**A.** 5.27 µg·h/g

**Q.** And the AUC0-t cortex ([8]; 30 mg/kg i.n.)?
**A.** 37.7 µg·h/g

**Q.** And the AUC0-t olfactory bulb ([8]; 30 mg/kg i.n.)?
**A.** 78.1 µg·h/g

**Q.** And the “Brain tissue to plasma ratio (AUC0-t,brain/AUC0-t,plasma), cerebellum” value ([8]; 30 mg/kg i.n.)?
**A.** 0.10

**Q.** And the “Brain tissue to plasma ratio (AUC0-t,brain/AUC0-t,plasma), cortex” value ([8]; 30 mg/kg i.n.)?
**A.** 0.71

**Q.** And the “Brain tissue to plasma ratio (AUC0-t,brain/AUC0-t,plasma), olfactory bulb” value ([8]; 30 mg/kg i.n.)?
**A.** 1.49

**Q.** What about the “Share of 2-PMPA reaching the brain accounted from the plasma” value ([8]; i.n., pooled plasma and brain data of i.p. and i.n. routes) of the same molecule?
**A.** 2%

**Q.** What does the source list for `O=C(O)CC[C@H](NC(=O)N[C@@H](CS)C(=O)O)C(=O)O` [DCMC, N-[N-[(S)-1,3-dicarboxypropyl]carbamoyl]-L-cysteine, reference compound]?
**A.** concentration at 1 h [1, 9]: 200 ng/g; concentration at 1 h [1, 10]: 2030 ng/g; concentration at 1 h [1, 11]: 2120 ng/g; IC50 (GCP-II [3]; [12]): 3.1 nM

Source: publication PMC4494705 (PLoS ONE, 2015)
